Legend:
Format in all cases: cell-based
[1] = system: Wild-type (wt) Streptococcus gordonii; assay: Quantitative culture (colony counts) of drug-exposed S. gordonii cultures
Procedure: (§1) 1) Strains and growth conditions: Wild-type (wt) and penicillin tolerant (Tol) Streptococcus gordonii (I. Caldelari et al., Antimicrobial Agents and Chemotherapy, 2000, 44(10):2802-2810) were grown at 37 degrees Celsius, either in brain heart infusion broth (BHI) without aeration, or on Columbia agar supplemented with 3% blood. Quantitative culture was performed by plating serial dilutions of bacterial cultures taken at various time points on penicillinase-containing blood-agar plates. Colonies counts were determined after incubation for […] at 37° C.

[2] = system: penicillin tolerant (Tol) Streptococcus gordonii; assay: RT-qPCR of 16S rRNA after drug exposure, tolerant mutant control; details: same system, Tol as control
Procedure: as §1
(§2) 3) Extraction and purification of bacterial DNA and RNA: (i) Total DNA from 3 ml of culture samples was extracted and purified using the DNeasy Tissue Kit according to the instructions of the manufacturer (Qiagen). […] Total RNA concentrations were determined by spectrophotometry and quality checked on 1% MOPS-agarose gels. […]
(§3) 4) Quantitative Real-Time PCR was performed using the following probe FAM-5′-TTGCACCACTACCAGATGGAC CTGC-3′-TAMRA (SEQ ID NO:3) according to the instruction of the manufacturer (Perkin-Elmer) on Sequence Detection System 5700 (Perkin-Elmer) in a total volume of 50 μl 1×PCR buffer (Gibco) containing 25 pmoles of each primer, […] of fluorescent probe, […] each dNTP and 1.5 UI of Taq DNA polymerase (Gibco). […]

[3] = system: Wild-type (wt) Streptococcus gordonii; assay: RT-qPCR of 16S rRNA after drug exposure; details: reverse transcription of 16S rRNA from total RNA, then qPCR
Procedure: as §1, §2, §3

## penicillin
[1]; after addition of penicillin, up to 50 hours
  loss of viability: 5 log CFU/ml
[1]; cultures dramatically killed with penicillin (qualitative PCR experiment)
  loss of viability: > 3 log CFU/ml
[2]
  ribosomal RNA amplicons in penicillin-tolerant mutant Tol: remained stable and proportional to viable bacteria
[3]
  16S rRNA amplicons (viability marker) during drug-induced killing: decreased proportionally to cell death

Reference: patent US20040110247A1, “New molecular tools for the rapid assessment of the presence and viability of microorganisms and methods of use” (priority 2002, published 2004)
